Patent US20240067617A1 (Albireo AB, priority 2022, published 2024)
pIC50: −log10 of the molar value.

Tests used:
[1] = Bidirectional permeability assay (Caco-2 cells); type: in vitro ADME; conditions: human, 10 μM in FaSSIF buffer, 120 minutes at 37° C.; for Papp A→B at 120 min, 10 µM: absorptive direction (A2B); for Papp B→A at 120 min, 10 µM: secretory direction (B2A)
Experimental: Bidirectional Permeability Assay (Caco-2 Cells)
Caco-2 cells (Evotec) were seeded at a density of 70,000 cells/well in Millicell© 24-well cell culture insert plates and maintained in an incubator (37° C., 5% CO2, 95% RH) for 21 days with media change on alternate days.
Stock solutions (10 mM) of the test compounds, atenolol (low permeability marker), propranolol (high permeability marker) and digoxin (substrate for P-gp transport pathway) were prepared in dimethylsulfoxide (DMSO). An intermediate stock solution (1 mM) was prepared by diluting 10 μL of 10 mM master stock solution with 90 μL of neat DMSO. A working stock solution (10 μM) was prepared by diluting 50 μL of 1 mM with 4950 μL of FaSSIF buffer. Post addition of compounds to the FaSSIF, samples were subjected to sonication for 2 hours, and centrifuged at 4000 RPM for 30 minutes at 37° C. The 4 mL of resultant supernatant was directly used in the assay. The final DMSO concentration in the transport experiments was 1%.
On the day of assay, Caco-2 monolayers were washed twice with transport buffer (HBSS, pH 7.4) and pre-incubated for 30 min (37° C., 5% CO2, 95% RH) in an incubator. The electrical resistance of the monolayers was measured with a Millicell®-ERS system. Monolayers with trans-epithelial electrical resistance (TEER) values greater than 350 ohm·cm^2 were selected for the assay.
The assay was conducted in absorptive direction (A2B) and secretory (B2A) directions. Transport experiments were initiated by addition of transport assay buffer (FaSSIF buffer prepared in HBSS) consisting of compounds to the donor compartment (apical chamber A-B; basolateral chamber B-A) in duplicate (n=2) wells. Drug free HBSS buffer (pH 7.4) containing 1% bovine serum albumin (BSA) was introduced to the receiver (A-B-basolateral; B-A-Apical) compartments. The volumes of apical and basolateral compartments were 0.4 and 0.8 mL, respectively. After adding dosing solution, plates were incubated in an incubator for 120 minutes at 37° C. After 120 minutes, donor and receiver samples were collected and matrix matched (1:1, 30 μL study sample+30 μL blank buffer) with the opposite buffer. Dosing samples matrix matched (1:1, 30 μL study sample+30 μL blank buffer) with the opposite buffer. Samples were processed by adding acetonitrile containing internal standard (60 μL study sample+200 μL acetonitrile containing internal standard—Tolbutamide, 500 ng/mL). Samples were vortexed and centrifuged at 4000 rpm for 10 minutes. The obtained supernatant (100 μL) was diluted with 100 μL of water and transferred to fresh 96 well plates. The concentration of compounds in the samples was analyzed by liquid chromatography tandem mass spectrometry (LC-MS/MS) method using discovery grade bio-analytical method, as applicable.
The mean apparent permeability (Papp,×10^−6 cm/sec) of the test compounds, atenolol, propranolol and digoxin were calculated as follows:
where dq/dt=rate of transport (rate of transport of compound in the receiver compartment), C0=initial concentration in the donor compartment, A=surface area of the effective filter membrane.

hLBAT = biological target: T1, hLBAT (Homo sapiens, UniProt Q14973); assay: LBAT (h/m) assay: 3H-taurocholic acid uptake in human LBAT-overexpressing cells; type: cell-based; conditions: 0.3 μM 3H-taurocholic acid + 7.5 μM cold taurocholic acid, 20 minutes at 37° C.
T1 construct: expressed in transfected cells; kept under Geneticin selection
T1 sequence (Q14973 1-349): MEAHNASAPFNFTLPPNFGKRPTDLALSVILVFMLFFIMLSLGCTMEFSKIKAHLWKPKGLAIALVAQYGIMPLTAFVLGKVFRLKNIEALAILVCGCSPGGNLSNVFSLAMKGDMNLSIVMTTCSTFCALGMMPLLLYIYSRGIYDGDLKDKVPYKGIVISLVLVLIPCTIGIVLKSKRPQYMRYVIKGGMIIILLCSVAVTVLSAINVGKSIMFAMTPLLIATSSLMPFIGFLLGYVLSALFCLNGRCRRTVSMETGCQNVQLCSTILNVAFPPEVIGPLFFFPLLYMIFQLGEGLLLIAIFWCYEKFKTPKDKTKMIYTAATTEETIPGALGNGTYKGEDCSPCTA
Procedure, shortened: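 Human or mouse LBAT-overexpressing cells given 10-point inhibitor series with 0.3 μM 3H-taurocholic acid plus cold taurocholic acid (7.5 μM human, 25 μM mouse), 0.2% DMSO, for 20 min at 37° C. Stopped on ice, washed with 1 mM unlabelled taurocholic acid; uptake measured by scintillation counting.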

| SMILES | Papp A→B at 120 min, 10 µM [1] | Papp B→A at 120 min, 10 µM [1] | pIC50 (hLBAT) |
| --- | --- | --- | --- |
| CCCCC1(CC)CN(c2ccccc2)c2cc(SC)c(CSCC(=O)O)cc2S(=O)(=O)C1 (single isomer, unassigned) [2, enantiomer 1] | 7.5 ×10⁻⁶ cm/s | 9.3 ×10⁻⁶ cm/s | 5.69 |
| CCCCC1(C)CN(c2ccccc2)c2cc(SC)c(CSCC(=O)O)cc2S(=O)(=O)C1 (single isomer, unassigned) [5, enantiomer 1] | 29.3 ×10⁻⁶ cm/s | 25.3 ×10⁻⁶ cm/s | 5.22 |
| CCCCC1(CC)CN(c2ccc(F)cc2)c2cc(SC)c(CSCC(=O)O)cc2S(=O)(=O)C1 (single isomer, unassigned) [7, enantiomer 1] | 24.3 ×10⁻⁶ cm/s | 21.3 ×10⁻⁶ cm/s | 5.30 |
